ChEMBL document CHEMBL1142399, “Water-soluble pleuromutilin derivative with excellent in vitro and in vivo antibacterial activity against gram-positive pathogens” (J Med Chem, 2008)
Converted amounts (≈) assume the structure as drawn.

Legend:
[1] = tested on: Staphylococcus epidermidis; assay: Antibacterial activity against Staphylococcus epidermidis ATCC 12228 by broth microdilution method; type: functional
Streptococcus pneumoniae [2] = assay: Antibacterial activity against penicillin-resistant Streptococcus pneumoniae KT2524 in mouse dosed iv 1 hr after infection; type: functional
Staphylococcus aureus [3] = assay: Antibacterial activity against methicillin-susceptible Staphylococcus aureus Smith in mouse dosed twice iv 1 hr and 4 hrs after infection; type: functional
Staphylococcus aureus [4] = assay: Antibacterial activity against methicillin-resistant Staphylococcus aureus KT0116 in mouse dosed twice iv 1 hr and 4 hrs after infection; type: functional
Streptococcus pneumoniae [5] = assay: Antibacterial activity against penicillin-susceptible Streptococcus pneumoniae ATCC 49619 in mouse dosed twice iv 1 hr and 4 hrs after infection; type: functional; details: ATCC 49619, iv
Streptococcus pneumoniae [6] = assay: Antibacterial activity against penicillin-resistant Streptococcus pneumoniae KT2524 in mouse dosed twice iv 1 hr and 4 hrs after infection; type: functional
Staphylococcus aureus [7] = assay: Antibacterial activity against methicillin-susceptible Staphylococcus aureus Smith in po dosed mouse twice daily; type: functional
Streptococcus pneumoniae [8] = assay: Antibacterial activity against penicillin-susceptible Streptococcus pneumoniae ATCC 6303 in mouse pulmonary infection model assessed as survival at 6.25 mg/kg, ip twice daily for 3 days; type: functional; details: route intraperitoneal
[9] = Solubility in water; type: physicochemical
Streptococcus pyogenes = assay: Antibacterial activity against Streptococcus pyogenes ATCC 12344 by broth microdilution method; type: functional
Enterococcus faecium [10] = assay: Antibacterial activity against vancomycin-resistant Enterococcus faecium KU1778 clinical isolate by broth microdilution method; type: functional
Moraxella catarrhalis = assay: Antibacterial activity against Moraxella catarrhalis K1209 by broth microdilution method; type: functional
Haemophilus influenzae = assay: Antibacterial activity against Haemophilus influenzae TH13 by broth microdilution method; type: functional
[11] = tested on: Staphylococcus saccharolyticus; assay: Antibacterial activity against Staphylococcus saccharolyticus GAI 5520 by broth microdilution method; type: functional
[12] = tested on: Streptococcus intermedius; assay: Antibacterial activity against Streptococcus intermedius GAI 7416 by broth microdilution method; type: functional
Atopobium parvulum = assay: Antibacterial activity against Atopobium parvulum GAI 5542 by broth microdilution method; type: functional; details: Lancefieldella parvula
[13] = tested on: Peptoniphilus asaccharolyticus; assay: Antibacterial activity against Peptostreptococcus asaccharolyticus GAI 5534 by broth microdilution method; type: functional
[14] = tested on: Peptostreptococcus anaerobius; assay: Antibacterial activity against Peptostreptococcus anaerobius GAI 5506 by broth microdilution method; type: functional
Finegoldia magna = assay: Antibacterial activity against Peptostreptococcus magnus GAI 5528 by broth microdilution method; type: functional
Clostridium perfringens = assay: Antibacterial activity against Clostridium perfringens GAI 5526 by broth microdilution method; type: functional
Cutibacterium acnes = assay: Antibacterial activity against Propionibacterium acnes GAI 5568 by broth microdilution method; type: functional
[15] = tested on: Propionibacterium granulosum; assay: Antibacterial activity against Propionibacterium granulosum GAI 7414 by broth microdilution method; type: functional; details: Cutibacterium granulosum
[16] = tested on: Mycoplasmoides pneumoniae; assay: Antibacterial activity against Mycoplasma pneumoniae FH Liu by broth microdilution method; type: functional
[17] = tested on: Mycoplasmoides pneumoniae; assay: Antibacterial activity against Mycoplasma pneumoniae Mac by broth microdilution method; type: functional
Staphylococcus aureus [18] = assay: Antibacterial activity against methicillin-susceptible Staphylococcus aureus Smith in mouse dosed iv 1 hr after infection; type: functional
Staphylococcus aureus [19] = assay: Antibacterial activity against methicillin-resistant Staphylococcus aureus KT0116 in mouse dosed iv 1 hr after infection; type: functional
Streptococcus pneumoniae [20] = assay: Antibacterial activity against penicillin-susceptible Streptococcus pneumoniae ATCC 49619 in mouse dosed iv 1 hr after infection; type: functional; details: ATCC 49619, iv
Staphylococcus aureus [21] = assay: microbe, parasite or virus in culture
Staphylococcus aureus [22] = assay: microbe, parasite or virus in culture; details: Smith
Staphylococcus aureus [23] = assay: microbe, parasite or virus in culture; remark: listed apart in the source
Staphylococcus aureus [24] = assay: microbe, parasite or virus in culture; details: KMP9
Streptococcus pneumoniae [25] = assay: microbe, parasite or virus in culture; details: ATCC 49619
Streptococcus pneumoniae [26] = assay: microbe, parasite or virus in culture
Enterococcus faecalis = assay: microbe, parasite or virus in culture; details: ATCC 29212
Enterococcus faecium [27] = assay: microbe, parasite or virus in culture; details: ATCC 19434

C=C[C@]1(C)C[C@@H](OC(=O)CSC2CCN(C(=O)CCn3cnc4c(N5CCNCC5)nc(N)nc43)CC2)[C@@]2(C)C3C(=O)CC[C@@]3(CC[C@H]2C)[C@@H](C)[C@@H]1O (stereo not given in full)
MIC [1]: 0.063 µg/mL (≈ 0.0839 µM)
ED50 (Streptococcus pneumoniae [2]): 1.55 mg/kg
ED50 (Staphylococcus aureus [3]): 1.51 mg/kg
ED50 (Staphylococcus aureus [4]): 0.91 mg/kg
ED50 (Streptococcus pneumoniae [5]): 1.34 mg/kg
ED50 (Streptococcus pneumoniae [6]): 1.88 mg/kg
ED50 (Staphylococcus aureus [7]): > 50 mg/kg
Activity (Streptococcus pneumoniae [8]): 50%
solubility [9]: 50 mg/mL (≈ 66600 µM)
MIC (Streptococcus pyogenes): 0.032 µg/mL (≈ 0.0426 µM)
MIC (Enterococcus faecium [10]): 0.063 µg/mL (≈ 0.0839 µM)
MIC (Moraxella catarrhalis): 0.032 µg/mL (≈ 0.0426 µM)
MIC (Haemophilus influenzae): 0.125 µg/mL (≈ 0.166 µM)
MIC [11]: 0.06 µg/mL (≈ 0.0799 µM)
MIC [12]: 0.25 µg/mL (≈ 0.333 µM)
MIC (Atopobium parvulum): 0.25 µg/mL (≈ 0.333 µM)
MIC [13]: 0.032 µg/mL (≈ 0.0426 µM)
MIC [14]: 0.032 µg/mL (≈ 0.0426 µM)
MIC (Finegoldia magna): 0.063 µg/mL (≈ 0.0839 µM)
MIC (Clostridium perfringens): 0.063 µg/mL (≈ 0.0839 µM)
MIC (Cutibacterium acnes): 0.008 µg/mL (≈ 0.0107 µM)
MIC [15]: 0.016 µg/mL (≈ 0.0213 µM)
MIC [16]: 0.008 µg/mL (≈ 0.0107 µM)
MIC [17]: 0.008 µg/mL (≈ 0.0107 µM)
ED50 (Staphylococcus aureus [18]): 1.86 mg/kg
ED50 (Staphylococcus aureus [19]): 2.15 mg/kg
ED50 (Streptococcus pneumoniae [20]): 1.54 mg/kg
MIC (Staphylococcus aureus [21]): 0.063 µg/mL (≈ 0.0839 µM)
MIC (Staphylococcus aureus [22]): 0.25 µg/mL (≈ 0.333 µM)
MIC (Staphylococcus aureus [23]): 0.5 µg/mL (≈ 0.666 µM)
MIC (Staphylococcus aureus [24]): 0.5 µg/mL (≈ 0.666 µM)
MIC (Streptococcus pneumoniae [25]): 0.063 µg/mL (≈ 0.0839 µM)
MIC (Streptococcus pneumoniae [26]): 0.063 µg/mL (≈ 0.0839 µM)
MIC (Enterococcus faecalis): 64 µg/mL (≈ 85.2 µM)
MIC (Enterococcus faecium [27]): 0.063 µg/mL (≈ 0.0839 µM)
